According to ChEMBL document CHEMBL3400056, “Novel thiazolo[3,2-b]-1,2,4-triazoles derived from naproxen with analgesic/anti-inflammatory properties: Synthesis, biological evaluation and molecular modeling studies” (Bioorg Med Chem, 2015):

Columns and labels:
Mus musculus [1] = experiment: Acute toxicity in Swiss albino mouse assessed as weight loss at 50 to 100 mg/kg, po measured up to 14 days; assay type: organism-based; set-up: dose 50-100 mg/kg, route oral; conditions: in vivo, 336 h
Mus musculus [2] = experiment: Acute toxicity in Swiss albino mouse assessed as behavioral changes at 50 to 100 mg/kg, po measured up to 14 days; assay type: organism-based; set-up: dose 50-100 mg/kg, route oral; conditions: in vivo, 336 h
[3] = target: T1, Prostaglandin G/H synthase 1 (Ovis aries, UniProt P05979); experiment: Inhibition of ovine recombinant COX-1 using […] as substrate incubated for 10 mins prior to arachidonic acid addition measured after 2 mins by EIA
T1 sequence (P05979 whole entry): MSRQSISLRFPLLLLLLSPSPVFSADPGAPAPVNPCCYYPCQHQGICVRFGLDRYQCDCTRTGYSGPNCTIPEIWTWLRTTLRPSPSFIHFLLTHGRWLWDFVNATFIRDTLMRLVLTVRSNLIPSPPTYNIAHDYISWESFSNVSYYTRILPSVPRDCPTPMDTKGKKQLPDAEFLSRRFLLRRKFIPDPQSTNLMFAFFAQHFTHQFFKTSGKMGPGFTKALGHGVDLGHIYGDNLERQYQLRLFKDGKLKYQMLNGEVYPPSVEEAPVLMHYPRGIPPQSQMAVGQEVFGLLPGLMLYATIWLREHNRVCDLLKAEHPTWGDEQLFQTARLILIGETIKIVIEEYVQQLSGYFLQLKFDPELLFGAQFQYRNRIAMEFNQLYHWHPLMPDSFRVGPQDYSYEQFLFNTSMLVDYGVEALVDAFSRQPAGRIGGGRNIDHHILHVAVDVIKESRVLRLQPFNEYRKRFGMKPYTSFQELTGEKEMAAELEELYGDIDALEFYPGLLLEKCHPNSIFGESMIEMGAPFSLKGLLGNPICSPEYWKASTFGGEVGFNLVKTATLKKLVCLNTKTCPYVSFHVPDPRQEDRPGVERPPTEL

Mus musculus [4] = experiment: Analgesic activity in Swiss albino mouse assessed as time of licking paws at 100 mg/kg, po measured after 2 hrs by tail flick test relative to control; assay type: functional
Mus musculus [5] = experiment: Gastrointestinal toxicity in Swiss albino mouse assessed as ulcer index at 50 mg/kg, po measured after 2 hrs; assay type: organism-based; set-up: dose 50 mg/kg, route oral; conditions: in vivo
Mus musculus [6] = experiment: Analgesic activity in Swiss albino mouse assessed as latancy of withdrawing tail at 100 mg/kg, po measured after 2 hrs by tail flick test relative to control; assay type: functional
Mus musculus [7] = experiment: Analgesic activity in Swiss albino mouse assessed as latancy of withdrawing tail at 50 mg/kg, po measured after 2 hrs by tail flick test relative to control; assay type: functional
Mus musculus [8] = experiment: Acute toxicity in Swiss albino mouse assessed as mortality at 50 to 100 mg/kg, po measured after 6 hrs to 14 days; assay type: organism-based; set-up: dose 50-100 mg/kg, route oral; conditions: in vivo
Mus musculus [9] = experiment: Antiinflammatory activity in Swiss albino mouse assessed as inhibition of carrageenan-induced paw edema at 50 mg/kg, po administered 1 hr prior to carrageenan challenge measured after 2 hrs relative to control; assay type: functional; set-up: scale not given: the % may be the effect or the level left
[10] = target: T2, Prostaglandin G/H synthase 2 (Homo sapiens, UniProt P35354); experiment: Inhibition of human recombinant COX-2 using […] as substrate incubated for 10 mins prior to arachidonic acid addition measured after 2 mins by EIA
T2 sequence (P35354 whole entry): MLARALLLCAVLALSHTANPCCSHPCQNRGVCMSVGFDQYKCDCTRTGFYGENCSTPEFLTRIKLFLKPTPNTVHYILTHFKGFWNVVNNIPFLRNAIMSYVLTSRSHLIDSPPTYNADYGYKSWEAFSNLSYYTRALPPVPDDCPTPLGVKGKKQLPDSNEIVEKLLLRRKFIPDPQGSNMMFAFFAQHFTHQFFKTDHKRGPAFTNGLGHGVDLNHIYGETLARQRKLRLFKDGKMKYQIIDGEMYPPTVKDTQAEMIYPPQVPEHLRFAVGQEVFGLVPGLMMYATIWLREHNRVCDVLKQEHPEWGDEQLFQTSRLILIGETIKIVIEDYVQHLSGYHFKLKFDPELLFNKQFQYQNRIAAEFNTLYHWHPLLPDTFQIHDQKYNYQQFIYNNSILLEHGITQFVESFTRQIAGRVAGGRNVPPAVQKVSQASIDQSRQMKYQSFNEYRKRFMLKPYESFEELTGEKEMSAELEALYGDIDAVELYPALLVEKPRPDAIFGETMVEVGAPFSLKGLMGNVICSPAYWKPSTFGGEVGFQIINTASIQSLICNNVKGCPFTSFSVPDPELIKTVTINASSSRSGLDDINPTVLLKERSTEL

[11] = Selectivity ratio of IC50 for ovine recombinant COX-1 to IC50 for human recombinant COX-2
Mus musculus [12] = experiment: Analgesic activity in Swiss albino mouse assessed as time of licking paws at 50 mg/kg, po measured after 2 hrs by tail flick test relative to control; assay type: functional
Mus musculus [13] = experiment: Antiinflammatory activity in Swiss albino mouse assessed as inhibition of carrageenan-induced paw edema at 100 mg/kg, po administered 1 hr prior to carrageenan challenge measured after 2 hrs relative to control; assay type: functional; set-up: scale not given: the % may be the effect or the level left
Mus musculus [14] = experiment: Gastrointestinal toxicity in Swiss albino mouse assessed as ulcer index at 100 mg/kg, po measured after 2 hrs; assay type: organism-based; set-up: dose 100 mg/kg, route oral; conditions: in vivo
[15] = Acute toxicity in Swiss albino mouse assessed as mortality at 50 mg/kg, po after 12 hrs; assay type: organism-based; set-up: dose 50 mg/kg, route oral; conditions: in vivo

COc1ccc2cc(C(C)c3nc4s/c(=C\c5ccc(C)s5)c(=O)n4n3)ccc2c1 (configuration not stated)
Activity (Mus musculus [1]): Non-toxic | Activity (Mus musculus [2]): Non-toxic | IC50 [3]: > 100 µM | MPE (Mus musculus [4]): 36% | UI (Mus musculus [5]): 1.8 | MPE (Mus musculus [6]): 43.5% | MPE (Mus musculus [7]): 32.8% | Activity (Mus musculus [8]): Non-toxic | Activity (Mus musculus [9]): 36.7% | IC50 [10]: 20.5 µM | Ratio IC50 [11]: > 4.87 | MPE (Mus musculus [12]): 34.9% | Activity (Mus musculus [13]): 31.1% | UI (Mus musculus [14]): 2.3

COc1ccc2cc(C(C)c3nc4s/c(=C\c5ccc(C(C)C)cc5)c(=O)n4n3)ccc2c1 (configuration not stated)
Activity (Mus musculus [1]): Non-toxic | Activity (Mus musculus [2]): Non-toxic | IC50 [3]: 79.6 µM | MPE (Mus musculus [4]): 22% | UI (Mus musculus [5]): 2.6 | MPE (Mus musculus [6]): 17.9% | MPE (Mus musculus [7]): 36.9% | Activity (Mus musculus [8]): Non-toxic | Activity (Mus musculus [9]): 29.3% | IC50 [10]: > 100 µM | Ratio IC50 [11]: < 0.796 | MPE (Mus musculus [12]): 27.6% | Activity (Mus musculus [13]): 43.3% | UI (Mus musculus [14]): 2.4

COc1ccc2cc(C(C)c3nc4s/c(=C\C(C)=C\c5ccccc5)c(=O)n4n3)ccc2c1 (configuration not stated)
Activity (Mus musculus [1]): Non-toxic | Activity (Mus musculus [2]): Non-toxic | IC50 [3]: 64.7 µM | MPE (Mus musculus [4]): 25.9% | UI (Mus musculus [5]): 2 | MPE (Mus musculus [6]): 41.1% | MPE (Mus musculus [7]): 45.3% | Activity (Mus musculus [8]): Non-toxic | Activity (Mus musculus [9]): 35.4% | IC50 [10]: 24.6 µM | Ratio IC50 [11]: 2.63 | MPE (Mus musculus [12]): 28.7% | Activity (Mus musculus [13]): 30.7% | UI (Mus musculus [14]): 2.3

COc1ccc2cc(C(C)c3nc4s/c(=C\c5cccc6ccccc56)c(=O)n4n3)ccc2c1 (configuration not stated)
Activity (Mus musculus [1]): Non-toxic | Activity (Mus musculus [2]): Non-toxic | IC50 [3]: 85.6 µM | MPE (Mus musculus [4]): 36.8% | UI (Mus musculus [5]): 2.6 | MPE (Mus musculus [6]): 53.8% | MPE (Mus musculus [7]): 51.9% | Activity (Mus musculus [8]): Non-toxic | Activity (Mus musculus [9]): 43% | IC50 [10]: 68.2 µM | Ratio IC50 [11]: 1.25 | MPE (Mus musculus [12]): 39.7% | Activity (Mus musculus [13]): 39.6% | UI (Mus musculus [14]): 2.2

COc1ccc2cc(C(C)c3nc4s/c(=C\c5ccc(Br)s5)c(=O)n4n3)ccc2c1 (configuration not stated)
Activity (Mus musculus [1]): Non-toxic | Activity (Mus musculus [2]): Non-toxic | IC50 [3]: 39.8 µM | MPE (Mus musculus [4]): 24.4% | UI (Mus musculus [5]): 1.8 | MPE (Mus musculus [6]): 41.1% | MPE (Mus musculus [7]): 38% | Activity (Mus musculus [8]): Non-toxic | Activity (Mus musculus [9]): 51.4% | IC50 [10]: 17.3 µM | Ratio IC50 [11]: 2.3 | MPE (Mus musculus [12]): 29% | Activity (Mus musculus [13]): 51.2% | UI (Mus musculus [14]): 2.6

COc1ccc2cc(C(C)c3nc4s/c(=C\c5ccc(-c6ccccc6)cc5)c(=O)n4n3)ccc2c1 (configuration not stated)
Activity (Mus musculus [1]): Non-toxic | Activity (Mus musculus [2]): Non-toxic | IC50 [3]: > 100 µM | MPE (Mus musculus [4]): 39.8% | UI (Mus musculus [5]): 1.3 | MPE (Mus musculus [6]): 49.1% | MPE (Mus musculus [7]): 47.1% | Activity (Mus musculus [8]): Non-toxic | Activity (Mus musculus [9]): 45.3% | IC50 [10]: > 100 µM | MPE (Mus musculus [12]): 42.1% | Activity (Mus musculus [13]): 40.9% | UI (Mus musculus [14]): 2.6

COc1ccc2c(c1)c(CC(=O)O)c(C)n2C(=O)c1ccc(Cl)cc1 [INDOMETHACIN]
MPE (Mus musculus [4]): 40.5% | UI (Mus musculus [5]): 4 | mortality at 12 h [15]: 71% | MPE (Mus musculus [6]): 46.2% | MPE (Mus musculus [7]): 46.9% | Activity (Mus musculus [9]): 46.8% | MPE (Mus musculus [12]): 35.2% | Activity (Mus musculus [13]): 50.9% | UI (Mus musculus [14]): 5.1
